Data published in paper PMC6084503, “Pyrrolo[3,2-c]pyridine derivatives with potential inhibitory effect against FMS kinase: in vitro biological studies” (Journal of Enzyme Inhibition and Medicinal Chemistry, 2018).

How the values were obtained:
[1] = test system: PC-3 prostate cancer cell line; experiment: NCI antiproliferative screening, 5-dose; format: cell-based
Protocol: (§1) Compounds 1r and KIST101029 were tested at the National Cancer Institute (NCI, Bethesda, MD) following their standard protocol [https://dtp.cancer.gov/discovery_development/nci-60/methodology.htm].
(§2) Due to over-expression of FMS kinase in certain types of tumours such as ovarian, prostate, and breast[5–7] cancers, we decided to test the antiproliferative activity of compound 1r against a panel of six ovarian, two prostate, and five breast cancer cell lines. It was also tested against HS 27 fibroblasts in order to investigate the selectivity indexes. The results were compared with those of KIST101029 as a reference standard.

[2] = test system: MDA-MB-231/ATCC breast cancer cell line; experiment: NCI antiproliferative screening, 5-dose; format: cell-based
Protocol: as §1, §2

[3] = test system: IGROV1 ovarian cancer cell line; experiment: NCI antiproliferative screening, 5-dose; format: cell-based
Protocol: as §1, §2

[4] = test system: NCI/ADR-RES ovarian cancer cell line; experiment: NCI antiproliferative screening, 5-dose; format: cell-based
Protocol: as §1, §2

[5] = test system: OVCAR-5 ovarian cancer cell line; experiment: NCI antiproliferative screening, 5-dose; format: cell-based
Protocol: as §1, §2

[6] = test system: HS 578T breast cancer cell line; experiment: NCI antiproliferative screening, 5-dose; format: cell-based
Protocol: as §1, §2

[7] = test system: DU-145 prostate cancer cell line; experiment: NCI antiproliferative screening, 5-dose; format: cell-based
Protocol: as §1, §2

[8] = test system: OVCAR-8 ovarian cancer cell line; experiment: NCI antiproliferative screening, 5-dose; format: cell-based
Protocol: as §1, §2

[9] = test system: OVCAR-4 ovarian cancer cell line; experiment: NCI antiproliferative screening, 5-dose; format: cell-based
Protocol: as §1, §2

[10] = test system: OVCAR-3 ovarian cancer cell line; experiment: NCI antiproliferative screening, 5-dose; format: cell-based
Protocol: as §1, §2

[11] = test system: MDA-MB-468 breast cancer cell line; experiment: NCI antiproliferative screening, 5-dose; format: cell-based
Protocol: as §1, §2

[12] = test system: T-47D breast cancer cell line; experiment: NCI antiproliferative screening, 5-dose; format: cell-based
Protocol: as §1, §2

[13] = test system: MCF7 breast cancer cell line; experiment: NCI antiproliferative screening, 5-dose; format: cell-based
Protocol: as §1, §2

EPHA1 = target: T1, EPHA1 (Homo sapiens, UniProt P21709); experiment: Kinase HotSpot 40-kinase panel; format: biochemical; conditions: single-dose concentration of 1 μM
T1 construct: purchased Reaction Biology Corp. (Kinase HotSpot)
Protocol: (§3) Reaction Biology Corp. Kinase HotSpot^SM service [http://www.reactionbiology.com] was utilised for screening of the target compounds as per the protocol reported in the literature.
(§4) Compound 1r was tested against a panel of 40 kinases including FMS. […] Its inhibition percentages against FLT3 (D835Y) and c-MET kinases were 42% and 40%, respectively. So its IC50 values against both of them will be in micromolar scale. […] The inhibition percentages exerted by compound 1r against the other 37 tested kinases were less than 28%.

PDK1 = target: T2, PDK1 (Homo sapiens, UniProt O15530); experiment: Kinase HotSpot 40-kinase panel; format: biochemical; conditions: single-dose concentration of 1 μM
T2 construct: purchased Reaction Biology Corp. (Kinase HotSpot)
Protocol: as §3, §4

FGFR1 = target: T3, FGFR1 (Homo sapiens, UniProt P11362); experiment: Kinase HotSpot 40-kinase panel; format: biochemical; conditions: single-dose concentration of 1 μM
T3 construct: purchased Reaction Biology Corp. (Kinase HotSpot)
Protocol: as §3, §4

CHK1 = target: T4, CHK1 (Homo sapiens, UniProt O14757); experiment: Kinase HotSpot 40-kinase panel; format: biochemical; conditions: single-dose concentration of 1 μM
T4 construct: purchased Reaction Biology Corp. (Kinase HotSpot)
Protocol: as §3, §4

CaMKI = target: T5, CaMKI (Homo sapiens, UniProt Q14012); experiment: Kinase HotSpot 40-kinase panel; format: biochemical; conditions: single-dose concentration of 1 μM
T5 construct: purchased Reaction Biology Corp. (Kinase HotSpot)
T5 sequence (Q14012 whole entry): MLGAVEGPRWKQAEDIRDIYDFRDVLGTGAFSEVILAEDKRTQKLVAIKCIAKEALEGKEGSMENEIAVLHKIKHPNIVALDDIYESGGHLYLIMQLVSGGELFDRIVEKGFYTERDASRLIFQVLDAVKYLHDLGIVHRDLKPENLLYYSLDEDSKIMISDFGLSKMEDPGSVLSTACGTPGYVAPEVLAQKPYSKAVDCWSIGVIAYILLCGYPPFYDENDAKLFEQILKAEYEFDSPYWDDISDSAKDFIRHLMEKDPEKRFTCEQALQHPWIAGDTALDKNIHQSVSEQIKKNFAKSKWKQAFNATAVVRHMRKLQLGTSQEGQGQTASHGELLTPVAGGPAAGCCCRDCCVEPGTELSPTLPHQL
Protocol: as §3, §4

Aurora A = target: T6, Aurora A (Homo sapiens, UniProt O14965); experiment: Kinase HotSpot 40-kinase panel; format: biochemical; conditions: single-dose concentration of 1 μM
T6 construct: purchased Reaction Biology Corp. (Kinase HotSpot)
T6 sequence (O14965 whole entry): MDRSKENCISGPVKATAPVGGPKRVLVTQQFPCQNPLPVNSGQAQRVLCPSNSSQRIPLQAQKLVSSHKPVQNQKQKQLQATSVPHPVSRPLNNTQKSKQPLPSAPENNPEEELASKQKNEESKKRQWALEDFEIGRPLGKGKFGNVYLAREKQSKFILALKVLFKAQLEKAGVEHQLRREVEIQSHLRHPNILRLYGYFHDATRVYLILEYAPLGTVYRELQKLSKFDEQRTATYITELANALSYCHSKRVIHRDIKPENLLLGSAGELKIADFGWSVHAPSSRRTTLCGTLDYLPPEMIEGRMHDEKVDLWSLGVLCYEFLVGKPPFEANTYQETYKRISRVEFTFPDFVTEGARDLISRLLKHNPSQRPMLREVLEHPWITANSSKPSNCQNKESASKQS
Protocol: as §3, §4

FLT3 (D835Y) = target: T7, FLT3 (D835Y) (Homo sapiens, UniProt P36888, D835Y); experiment: Kinase HotSpot 40-kinase panel; format: biochemical; conditions: single-dose concentration of 1 μM
T7 construct: purchased Reaction Biology Corp. (Kinase HotSpot)
Protocol: as §3, §4

HIPK2 = target: T8, HIPK2 (Homo sapiens, UniProt Q9H2X6); experiment: Kinase HotSpot 40-kinase panel; format: biochemical; conditions: single-dose concentration of 1 μM
T8 construct: purchased Reaction Biology Corp. (Kinase HotSpot)
Protocol: as §3, §4

SAPK2a = target: T9, SAPK2a (Homo sapiens, UniProt Q16539); experiment: Kinase HotSpot 40-kinase panel; format: biochemical; conditions: single-dose concentration of 1 μM
T9 construct: purchased Reaction Biology Corp. (Kinase HotSpot)
Protocol: as §3, §4

GSK3β = target: T10, GSK3β (Homo sapiens, UniProt P49841); experiment: Kinase HotSpot 40-kinase panel; format: biochemical; conditions: single-dose concentration of 1 μM
T10 construct: purchased Reaction Biology Corp. (Kinase HotSpot)
T10 sequence (P49841 whole entry): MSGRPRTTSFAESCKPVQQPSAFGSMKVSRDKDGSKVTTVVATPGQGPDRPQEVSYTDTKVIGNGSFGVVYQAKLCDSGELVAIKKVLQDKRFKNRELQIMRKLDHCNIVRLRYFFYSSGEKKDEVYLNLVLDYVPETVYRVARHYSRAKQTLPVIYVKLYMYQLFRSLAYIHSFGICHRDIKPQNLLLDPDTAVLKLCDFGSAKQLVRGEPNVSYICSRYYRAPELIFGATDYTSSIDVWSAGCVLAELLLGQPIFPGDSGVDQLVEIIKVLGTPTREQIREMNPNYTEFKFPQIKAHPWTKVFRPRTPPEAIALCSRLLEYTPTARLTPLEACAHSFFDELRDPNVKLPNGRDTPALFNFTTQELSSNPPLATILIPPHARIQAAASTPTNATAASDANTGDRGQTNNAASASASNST
Protocol: as §3, §4

KDR = target: T11, KDR (Homo sapiens, UniProt P35968); experiment: Kinase HotSpot 40-kinase panel; format: biochemical; conditions: single-dose concentration of 1 μM
T11 construct: purchased Reaction Biology Corp. (Kinase HotSpot)
Protocol: as §3, §4

IR = target: T12, IR (Homo sapiens, UniProt P06213); experiment: Kinase HotSpot 40-kinase panel; format: biochemical; conditions: single-dose concentration of 1 μM
T12 construct: purchased Reaction Biology Corp. (Kinase HotSpot)
Protocol: as §3, §4

MEK1 = target: T13, MEK1 (Homo sapiens, UniProt Q02750); experiment: Kinase HotSpot 40-kinase panel; format: biochemical; conditions: single-dose concentration of 1 μM
T13 construct: purchased Reaction Biology Corp. (Kinase HotSpot)
Protocol: as §3, §4

ABL1 = target: T14, ABL1 (Homo sapiens, UniProt P00519); experiment: Kinase HotSpot 40-kinase panel; format: biochemical; conditions: single-dose concentration of 1 μM
T14 construct: purchased Reaction Biology Corp. (Kinase HotSpot)
Protocol: as §3, §4

IKKβ = target: T15, IKKβ (Homo sapiens, UniProt O14920); experiment: Kinase HotSpot 40-kinase panel; format: biochemical; conditions: single-dose concentration of 1 μM
T15 construct: purchased Reaction Biology Corp. (Kinase HotSpot)
Protocol: as §3, §4

c-MET = target: T16, c-MET (Homo sapiens, UniProt P08581); experiment: Kinase HotSpot 40-kinase panel; format: biochemical; conditions: single-dose concentration of 1 μM
T16 construct: purchased Reaction Biology Corp. (Kinase HotSpot)
Protocol: as §3, §4

JNK1α1 = target: T17, JNK1α1 (Homo sapiens, UniProt P45983); experiment: Kinase HotSpot 40-kinase panel; format: biochemical; conditions: single-dose concentration of 1 μM
T17 construct: purchased Reaction Biology Corp. (Kinase HotSpot)
Protocol: as §3, §4

DMPK = target: T18, DMPK (Homo sapiens, UniProt Q09013); experiment: Kinase HotSpot 40-kinase panel; format: biochemical; conditions: single-dose concentration of 1 μM
T18 construct: purchased Reaction Biology Corp. (Kinase HotSpot)
T18 sequence (Q09013 whole entry): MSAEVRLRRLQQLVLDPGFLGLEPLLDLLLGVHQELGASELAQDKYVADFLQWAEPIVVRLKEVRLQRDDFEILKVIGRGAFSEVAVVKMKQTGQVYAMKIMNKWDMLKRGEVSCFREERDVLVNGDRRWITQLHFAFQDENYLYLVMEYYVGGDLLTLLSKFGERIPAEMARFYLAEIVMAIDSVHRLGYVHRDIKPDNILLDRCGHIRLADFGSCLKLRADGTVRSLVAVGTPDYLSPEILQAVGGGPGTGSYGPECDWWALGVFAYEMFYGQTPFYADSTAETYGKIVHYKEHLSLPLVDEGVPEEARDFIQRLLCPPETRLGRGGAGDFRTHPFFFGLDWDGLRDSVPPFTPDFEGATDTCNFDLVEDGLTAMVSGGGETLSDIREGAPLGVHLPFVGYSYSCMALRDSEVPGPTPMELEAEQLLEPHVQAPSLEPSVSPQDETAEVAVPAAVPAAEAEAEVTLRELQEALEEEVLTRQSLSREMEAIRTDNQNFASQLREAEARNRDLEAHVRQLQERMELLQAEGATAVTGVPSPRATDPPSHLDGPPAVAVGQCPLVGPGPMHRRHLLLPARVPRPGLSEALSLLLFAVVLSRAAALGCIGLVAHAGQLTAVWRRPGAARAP
Protocol: as §3, §4

PLK1 = target: T19, PLK1 (Homo sapiens, UniProt P53350); experiment: Kinase HotSpot 40-kinase panel; format: biochemical; conditions: single-dose concentration of 1 μM
T19 construct: purchased Reaction Biology Corp. (Kinase HotSpot)
T19 sequence (P53350 whole entry): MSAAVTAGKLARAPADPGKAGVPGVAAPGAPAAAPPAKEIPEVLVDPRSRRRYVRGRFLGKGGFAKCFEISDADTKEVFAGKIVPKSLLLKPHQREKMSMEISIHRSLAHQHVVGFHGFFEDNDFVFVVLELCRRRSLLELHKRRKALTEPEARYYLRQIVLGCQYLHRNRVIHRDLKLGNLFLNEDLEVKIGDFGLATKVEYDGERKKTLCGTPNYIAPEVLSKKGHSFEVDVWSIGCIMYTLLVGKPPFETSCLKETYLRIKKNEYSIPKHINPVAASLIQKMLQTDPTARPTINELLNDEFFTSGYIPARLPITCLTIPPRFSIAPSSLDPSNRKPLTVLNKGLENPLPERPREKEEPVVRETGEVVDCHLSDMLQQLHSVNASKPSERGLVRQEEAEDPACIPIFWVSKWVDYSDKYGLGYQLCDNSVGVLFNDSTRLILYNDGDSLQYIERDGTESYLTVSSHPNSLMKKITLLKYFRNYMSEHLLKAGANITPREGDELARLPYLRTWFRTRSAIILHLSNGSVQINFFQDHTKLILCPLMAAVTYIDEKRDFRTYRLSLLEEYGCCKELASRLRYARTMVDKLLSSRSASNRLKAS
Protocol: as §3, §4

ROCK1 = target: T20, ROCK1 (Homo sapiens, UniProt Q13464); experiment: Kinase HotSpot 40-kinase panel; format: biochemical; conditions: single-dose concentration of 1 μM
T20 construct: purchased Reaction Biology Corp. (Kinase HotSpot)
T20 sequence (Q13464 whole entry): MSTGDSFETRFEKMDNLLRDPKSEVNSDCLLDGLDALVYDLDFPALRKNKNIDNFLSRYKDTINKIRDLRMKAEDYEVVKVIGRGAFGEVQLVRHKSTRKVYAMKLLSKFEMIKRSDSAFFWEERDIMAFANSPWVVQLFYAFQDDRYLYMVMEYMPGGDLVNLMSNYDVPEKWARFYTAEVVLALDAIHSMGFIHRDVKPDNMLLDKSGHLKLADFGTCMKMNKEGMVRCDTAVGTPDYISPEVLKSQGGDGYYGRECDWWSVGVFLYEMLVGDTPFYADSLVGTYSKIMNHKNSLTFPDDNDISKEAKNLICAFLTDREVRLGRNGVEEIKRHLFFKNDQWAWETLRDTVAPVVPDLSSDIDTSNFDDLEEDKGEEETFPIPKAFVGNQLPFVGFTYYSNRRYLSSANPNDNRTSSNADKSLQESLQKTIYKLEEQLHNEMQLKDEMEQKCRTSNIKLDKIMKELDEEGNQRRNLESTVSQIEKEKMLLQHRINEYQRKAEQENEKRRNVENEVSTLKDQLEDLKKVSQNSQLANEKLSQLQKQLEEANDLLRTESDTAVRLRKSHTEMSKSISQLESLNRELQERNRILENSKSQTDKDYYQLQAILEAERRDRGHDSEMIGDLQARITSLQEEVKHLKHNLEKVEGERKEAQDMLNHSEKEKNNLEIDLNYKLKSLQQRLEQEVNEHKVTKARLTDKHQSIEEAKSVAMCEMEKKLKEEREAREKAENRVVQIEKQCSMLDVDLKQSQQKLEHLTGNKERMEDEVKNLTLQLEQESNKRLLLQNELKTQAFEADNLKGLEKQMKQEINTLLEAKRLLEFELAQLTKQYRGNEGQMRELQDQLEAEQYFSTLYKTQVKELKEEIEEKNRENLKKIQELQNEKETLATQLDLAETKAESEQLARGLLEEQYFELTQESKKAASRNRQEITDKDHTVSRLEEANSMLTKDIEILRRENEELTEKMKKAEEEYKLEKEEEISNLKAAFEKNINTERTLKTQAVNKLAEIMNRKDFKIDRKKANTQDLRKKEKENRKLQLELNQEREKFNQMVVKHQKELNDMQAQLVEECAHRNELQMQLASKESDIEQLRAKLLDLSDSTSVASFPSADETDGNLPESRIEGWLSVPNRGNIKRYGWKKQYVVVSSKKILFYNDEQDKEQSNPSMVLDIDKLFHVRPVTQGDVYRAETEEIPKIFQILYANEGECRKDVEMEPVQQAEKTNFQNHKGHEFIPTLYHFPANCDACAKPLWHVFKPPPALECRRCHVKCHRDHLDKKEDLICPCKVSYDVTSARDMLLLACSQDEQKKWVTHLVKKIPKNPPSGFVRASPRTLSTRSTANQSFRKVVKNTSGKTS
Protocol: as §3, §4

c-SRC = target: T21, c-SRC (Homo sapiens, UniProt P12931); experiment: Kinase HotSpot 40-kinase panel; format: biochemical; conditions: single-dose concentration of 1 μM
T21 construct: purchased Reaction Biology Corp. (Kinase HotSpot)
T21 sequence (P12931 whole entry): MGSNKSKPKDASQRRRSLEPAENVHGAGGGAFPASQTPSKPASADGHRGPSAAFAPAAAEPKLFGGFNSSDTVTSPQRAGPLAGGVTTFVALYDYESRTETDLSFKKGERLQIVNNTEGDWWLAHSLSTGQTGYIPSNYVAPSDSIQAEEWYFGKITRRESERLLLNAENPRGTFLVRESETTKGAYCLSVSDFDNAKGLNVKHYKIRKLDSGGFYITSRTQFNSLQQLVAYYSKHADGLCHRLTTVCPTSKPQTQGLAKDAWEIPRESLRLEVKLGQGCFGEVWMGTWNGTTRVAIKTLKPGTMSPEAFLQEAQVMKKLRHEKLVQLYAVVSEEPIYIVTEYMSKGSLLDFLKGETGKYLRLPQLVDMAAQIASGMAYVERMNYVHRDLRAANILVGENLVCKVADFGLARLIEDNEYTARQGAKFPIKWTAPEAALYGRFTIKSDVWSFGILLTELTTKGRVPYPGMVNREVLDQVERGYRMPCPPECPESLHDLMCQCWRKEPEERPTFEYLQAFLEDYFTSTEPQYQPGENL
Protocol: as §3, §4

BTK = target: T22, BTK (Homo sapiens, UniProt Q06187); experiment: Kinase HotSpot 40-kinase panel; format: biochemical; conditions: single-dose concentration of 1 μM
T22 construct: purchased Reaction Biology Corp. (Kinase HotSpot)
T22 sequence (Q06187 whole entry): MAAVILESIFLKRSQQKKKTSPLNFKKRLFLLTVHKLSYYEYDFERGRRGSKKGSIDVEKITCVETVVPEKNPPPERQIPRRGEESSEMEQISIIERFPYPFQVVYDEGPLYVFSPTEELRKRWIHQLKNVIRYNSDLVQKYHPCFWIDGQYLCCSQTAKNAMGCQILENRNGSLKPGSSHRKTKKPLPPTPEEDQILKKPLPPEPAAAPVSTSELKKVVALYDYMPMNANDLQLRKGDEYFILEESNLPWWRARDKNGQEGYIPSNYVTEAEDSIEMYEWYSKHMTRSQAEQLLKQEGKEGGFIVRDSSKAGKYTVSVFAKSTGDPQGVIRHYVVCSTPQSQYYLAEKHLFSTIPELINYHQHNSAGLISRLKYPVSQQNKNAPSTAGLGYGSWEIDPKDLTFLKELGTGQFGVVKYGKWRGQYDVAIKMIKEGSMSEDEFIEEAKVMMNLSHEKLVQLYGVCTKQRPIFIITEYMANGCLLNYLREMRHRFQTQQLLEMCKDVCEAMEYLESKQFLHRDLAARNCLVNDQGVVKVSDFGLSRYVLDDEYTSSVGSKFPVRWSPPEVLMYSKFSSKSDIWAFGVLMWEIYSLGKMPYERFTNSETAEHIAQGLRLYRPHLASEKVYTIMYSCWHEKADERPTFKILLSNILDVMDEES
Protocol: as §3, §4

RET = target: T23, RET (Homo sapiens, UniProt P07949); experiment: Kinase HotSpot 40-kinase panel; format: biochemical; conditions: single-dose concentration of 1 μM
T23 construct: purchased Reaction Biology Corp. (Kinase HotSpot)
Protocol: as §3, §4

CDK5/p25 = target: T24, CDK5/p25 (Homo sapiens, UniProt Q00535); experiment: Kinase HotSpot 40-kinase panel; format: biochemical; conditions: single-dose concentration of 1 μM
T24 construct: purchased Reaction Biology Corp. (Kinase HotSpot)
Protocol: as §3, §4

[14] = concentration producing 100% inhibition
[15] = Homo sapiens, concentration producing 50% inhibition, mean of duplicate experiments

inhibition at 1 µM (EPHA1): 9% | inhibition at 1 µM (PDK1): -1% | inhibition at 1 µM (FGFR1): 6% | inhibition at 1 µM (CHK1): -8% | inhibition at 1 µM (CaMKI): -1% | inhibition at 1 µM (Aurora A): 21% | inhibition at 1 µM (FLT3 (D835Y)): 16% | inhibition at 1 µM (HIPK2): 9% | inhibition at 1 µM (SAPK2a): 25% | inhibition at 1 µM (GSK3β): 4% | inhibition at 1 µM (KDR): 71% | inhibition at 1 µM (IR): 2% | inhibition at 1 µM (MEK1): 12% | inhibition at 1 µM (ABL1): 41% | inhibition at 1 µM (IKKβ): 23% | inhibition at 1 µM (c-MET): -16% | inhibition at 1 µM (JNK1α1): -1% | inhibition at 1 µM (DMPK): -18% | inhibition at 1 µM (PLK1): 4% | inhibition at 1 µM (ROCK1): 3% | inhibition at 1 µM (c-SRC): 10% | inhibition at 1 µM (BTK): 7% | inhibition at 1 µM (RET): 57% | inhibition at 1 µM (CDK5/p25): 8%
Structure (SMILES): O=C(Nc1cccc(-n2ccc3c(NC(=O)c4ccccc4)nccc32)c1)c1ccc(N2CCOCC2)c(C(F)(F)F)c1 [KIST101029, reference compound]
IC50 ([1]; concentration producing 50% inhibition, mean of duplicate experiments): 0.06 µM | TGI [1, 14]: >100 µM | IC50 [2, 15]: 0.16 µM | TGI [2, 14]: 3.42 µM | IC50 ([3]; Homo sapiens, IGROV-1, concentration producing 50% inhibition, mean of duplicate experiments): 0.06 µM | TGI [3, 14]: 56.9 µM | IC50 [4, 15]: 0.04 µM | TGI [4, 14]: 26.4 µM | IC50 [5, 15]: 0.2 µM | TGI [5, 14]: >100 µM | IC50 [6, 15]: 0.99 µM | TGI [6, 14]: 97.2 µM | IC50 [7, 15]: 0.04 µM | TGI [7, 14]: 0.10 µM | IC50 [8, 15]: 0.06 µM | TGI [8, 14]: >100 µM | IC50 [9, 15]: 0.24 µM | TGI [9, 14]: 50.0 µM | IC50 [10, 15]: 0.02 µM | TGI [10, 14]: 0.05 µM | IC50 [11, 15]: 0.03 µM | TGI [11, 14]: 0.10 µM | IC50 ([12]; Homo sapiens, T47D, concentration producing 50% inhibition, mean of duplicate experiments): 0.08 µM | TGI [12, 14]: 7.46 µM | IC50 [13, 15]: 0.04 µM | TGI [13, 14]: 54.0 µM
